Laboratory results from patent publication US7919579B2, “Imaging and therapeutic targeting of prostate and bladder tissues” (The Board of Regents of the University of Texas System, priority 2006, dated 2011).
No end group written: not given here. *: point of attachment. FITC = O=C1OC2(c3ccc(O)cc3Oc3cc(O)ccc32)c2ccc(NC(=S)*)cc21

Legend:
[1] = system: R11 uptake by bladder cancer cells; experiment: inhibitor and GAG competition of R11 uptake in bladder cancer cells; format: cell-based, human; settings: for competition of R11 uptake by GAGs: various concentrations of GAG with 5 μM R11, 30 min
Experimental: FIGS. 10A-C—Determination of primary interaction molecule for R11 uptake in several bladder cancer cells. Human bladder cancer cells were pre-treated with various inhibitors (FIG. 10A: EIPA; FIG. 10B: Toxin B) 2 h and then incubated with 5 μM CPPs for 30 min before harvesting cell for determining cellular uptake. For competition assay, various concentrations of GAG's and 5 μM R9, R11, or R13 were added into cells for 30 min before harvesting cell for determining cellular uptake (FIG. 10C). Relative uptake was determined based on control (=1).
In order to define R11 as a bladder-specific molecular probe, it is critical to unveil the mechanism of R11 uptake. […] Furthermore, they examined a variety of glycosaminoglycans (GAGs) commonly detected in bladder wall (De Klerk, 1985) for their abilities to block the R11 uptake.

PC3 = settings: human, 5 μM
Experimental: (§4) The fluorescence-labeled CPPs (TAT, Penetratin (PENE), KALA, R11 & K11) were synthesized and tested in a variety of PCa cells (LNCaP, C4-2, LAPC4 and PC3 cells). […] Different concentrations of each CPP were incubated with cells for 30 minutes prior to cell harvesting. Relative FITC intensity was determined by normalizing fluorescence intensity of each treatment with its cell numbers. […] R11 (5 μM) was incubated with cells at the indicated time. Relative FITC intensity was determined by normalizing fluorescence intensity of each treatment with its cell numbers. […] Cells were pulsed with R11 (5 μM) chased for the indicated time and the percentage of uptake was used time zero (=100%). Each column or data point represents mean±SD in triplicate. […]
(§5) Therefore, the dynamics of R11 uptake was evaluated by incubating cells with 5 μM R11 for 5, 10 and 30 minutes. […]
(§6) To determine the uptake efficiency of each CPP, different concentrations (0.1, 1, 5 μM) of FITC-tagged peptides were incubated with cells for 30 minutes (or different time for the time course study) then cells were washed twice with PBS and trypsinized. After washing with PBS twice, the total cell number was determined and cells were lysed in Tris Buffer (50 mM Tris-HCl, pH 7.5, 150 mM NaCl, 5 mM EDTA, 1% Triton X100). The fluorescence intensity was examined by fluorometer (excitation 490-500 nm; emission 515-525 nm). […]

in vitro = settings: human
Experimental: as §4, §5, §6

[2] = set-up: species or system nude mice; settings: in vivo
Experimental: FIGS. 9A-C—Comparison of delivery efficiency between different length of polyarginines. (FIG. 9A) In vitro uptake by bladder cancer cell lines 30 min after incubation. Relative uptake was determined by fluorometer and normalized using R11 5 μM (=1) in each cell line. (FIG. 9B) Animal study (n=3; 24 h post injection). The peptides (5 nmole/gram body weight) were administered via intravenous (IV) route. SV: seminal vesicle; CG: coagulation gland. (FIG. 9C) The tissue localization of FITC-R11 in mouse bladder.
Although the cellular uptake mechanism of CPPs is not completely understood, they were not supposed to have cell specificity. Also, the efficiency of CPPs delivery varies among different species and length. For example, Mai et al. (2002) has reported that the 8-mer and 10-mer of polylysine have higher cell permeable efficiency for a broad range of cell types than polyarginine does. However, the inventors observed that polyarginine is more efficiency than polylysine in bladder cancer cells (FIG. 9A). In order to further determine whether R11 is the best polyarginine for bladder cancer cells, the inventors examined the uptake efficiency using different lengths of polyarginine.

C4-2 = settings: human, 5 μM
Experimental: as §4, §5, §6

[3] = system: lung metastasis of T24 bladder cancer; settings: mouse, in vivo
Experimental: Top right panel, athymic nude mice were chosen based on a similar size of lung metastasis of bladder cancer from BLI were IV injected with 5 nmole FITC-R11 (left) or FITC (right) per gram body weight. Twenty-four hours after injection, whole body imaging (top left panel) or ex vivo imaging (bottom middle and right panel) of lung was carried out with Maestro In-vivo Imaging System (CRI, Inc.). The image shown is one of the representative experiments.

LNCaP [4] = settings: human, 5 μM
Experimental: as §4, §5, §6

LAPC4 = settings: human, 5 μM
Experimental: as §4, §5, §6

[5] = system: PCa cells (LNCaP, C4-2, LAPC4 and PC3); experiment: uptake of FITC-tagged CPPs by PCa cells (fluorometer); format: cell-based; settings: four PCa cells; 30 minutes
Experimental: Cell culture and peptide incubation. All PCa cell lines (LNCaP, C4-2, LAPC4 and PC3) were maintained as described previously (Zhou et al., 2005). To determine the peptide uptake, 1×10^5 cells per well were plated in a 12-well plate. Next day, the culture medium was replaced with RPMI medium supplemented with 0.5% FBS (Invitrogen, Carlsbad, Calif.) containing different concentrations fluorescence (FITC)-tagged peptides and incubation was carried out at the indicated time. For determining cellular location of peptide, cells were cultured overnight in slide chamber at a density of 25×10^4/cm^2. The FITC tagged peptides were incubated for 30 minutes in the presence of RPMI medium supplemented with 0.5% of FBS prior to fluorescence microscopy.
Fluorescence intensity determination and Fluorescence microscopy.
Screening of the most efficient CPP uptake by prostate cancer (PCa) cell lines. To deliver small peptide into target cells, CPP was employed as a delivery system. Five different CPPs were synthesized including TAT (amino acid 49-57), Penetratin (Antennapedia 43-58) (PENE), KALA peptide, poly-arginine (R11) and poly-lysine (K11). All the CPPs were incorporated with a FITC-labeled glycine at their N-terminal ends. […] To determine the uptake quantitatively, fluorometer was used to measure the intensity of each CPP per cell basis. To rule out the possible artifacts such as CPP only associated with the cell surface and the pH variation from different organelles, cells were trypsinized and washed extensively with PBS, and a buffer with neutral pH was used in this experiment. […] In general, the uptake efficiency of five different CPPs tested can be considered as R11>>KALA≧TAT≧PENE≧K11 among four PCa cells.

C4-2 cells = experiment: cell growth assay (MTT), serum or DHT-induced proliferation; format: cell-based; settings: 5 μM peptide, 5% FBS or 10 nM DHT, MTT 4 days
Experimental: (§1) FIGS. 3A-B—Inhibitory effect of R11PPL on serum and androgen-induced cell proliferation of PCa. LNCaP (FIG. 3A) or C4-2 cells (FIG. 3B) were incubated with 5 μM R11PPL, R11AAL or without peptide 3 hours before adding serum or DHT (10 nM) and relative cell number was determined by MTT assay. All the experiments were carried out in quadruplicates and repeated at least twice. Each column represents mean±SD in triplicate.
(§2) Cell growth assay and cell cycle analysis. Cells were plated in 96-well plate at a density of 10^3 per well in T-medium supplemented with 5% charcoal-stripped FBS for overnight. Cells were incubated with or without indicated peptides (5 μM) for 3 hours in the presence of T-medium supplemented with 0.5% charcoal-stripped FBS. Subsequently, cells were replaced with T-medium containing either 5% FBS or 10 nM dihydrotestosterone (DHT). The peptides were changed every 2 days. The cell proliferation was determined 4 days after the initial peptide treatment by using 3-(4,5-dimethylthiazol-2-yl)-2,5-diphenyltetrazolium bromide (MTT) assay (Roche, Indianapolis, Ind.).

LNCaP [6] = experiment: as above; format: cell-based; settings: 5 μM peptide, 5% FBS or 10 nM DHT, MTT 4 days
Experimental: as §1, §2

[7] = system: interaction of Grb2 with SOS; experiment: in vitro pull down assay, GST-Grb2 (SH3) binding of SOS; settings: C4-2 cell lysate after EGF; peptide 10, 30, 100 μM
Experimental: (§3) FIGS. 4A-B—Mechanism of action of R11PPL in PCa cells. To determine the function of R11PPL (SEQ ID NO:11) on interaction of Grb2 with SOS, the C4-2 cell lysates were collected after treated with EGF (FIG. 4A). The GST fusion protein with SH3 domain of Grb2 was used for the pull-down assay. The same amount of immobilized GST-Grb2 (SH3) protein (IB:αGST) was incubated with equal amount of cell lysate in addition of no peptide, the increasing amount of control R11AAL (SEQ ID NO:10) or R11PPL (SEQ ID NO:11) peptide as indicated. The binding of SOS was analyzed with Western Blot using SOS1 antibody. DOC-2/DAB2 expression plasmid transfection was used as a positive control. To examine the effect of R11PPL on MAP kinase activity (FIG. 4B), C4-2 cells were incubated with 5 μM R11PPL, R11AAL or R11 (SEQ ID NO:6) peptide 3 hours before adding EGF (10 ng/ml) (top panel) or 5% FBS (bottom panel). Cell lysates were subjected to western blot analysis probed with phosphorylated Erk1 and 2 antibody (αpErk1/2) or total Erk2 antibody (αErk2) used as a loading control. Each experiment has been repeated twice; this graph represents the typical result.
In vitro pull down assay. […] The increasing concentrations of peptide (10, 30, 100 μM) for R11PPL or R11AAL were also added during the incubation. […]

[8] = system: MAP kinase (Erk2) activation; experiment: Western blot of phosphorylated Erk1/2 in C4-2 cells; format: cell-based
Experimental: as §3
Western blot analysis. Cells were plated in 6-well plates (2×10^5 per well) with T medium containing 5% FBS. […] The protein intensity was detected using an enhanced chemiluminescence detection kit (Amersham, Piscataway, N.J.). […]

CCN(c1nc(N)c(C(=O)NC(=N)N)nc1Cl)C(C)C [EIPA]
effect of inhibitor on R11 uptake ([1]; pre-treated 2 h, then 5 μM CPPs 30 min): effectively diminish R11 uptake

N=C(N)NCCC[C@H](NC(=O)[C@H](CCCNC(=N)N)NC(=O)[C@H](CCCNC(=N)N)NC(=O)[C@H](CCCNC(=N)N)NC(=O)[C@H](CCCNC(=N)N)NC(=O)[C@H](CCCNC(=N)N)NC(=O)[C@H](CCCNC(=N)N)NC(=O)[C@H](CCCNC(=N)N)NC(=O)[C@H](CCCNC(=N)N)NC(=O)[C@H](CCCNC(=N)N)NC(=O)[C@H](CCCNC(=N)N)NC(=O)CNC(=S)Nc1ccc2c(c1)C(=O)OC21c2ccc(O)cc2Oc2cc(O)ccc21)C(=O)O [R11, ^FITC-G-R11]
half-life of R11 (PC3): 24.0 h
half-life at 5 μM (in vitro): 23 to 24 h
tissue localization in mouse bladder (histologic examination) [2]: presence of R11 in both transitional and stromal cell compartments of bladder
half-life of R11 (C4-2): 24.1 h
ex vivo fluorescence signal of lung tumor lesion [3]: clear fluorescence signal is visualized in the ex vivo tumor lesion
half-life of R11 (LNCaP [4]): 23.4 h
half-life of R11 (LAPC4): 22.8 h

^FITC-G- RRRRRRRRRRR -GG-FQLRQAALVASRKGE [R11AAL]
uptake of R11, R11AAL and R11PPL compared [5]: very similar
serum or DHT-induced cell proliferation (C4-2 cells): did not exhibit any effect
serum or DHT-induced cell proliferation (LNCaP [6]): did not exhibit any effect

^FITC-G-KLALKLALKALKAALKLA ({FITC}-GKLALKLALKALKAALKLA) [KALA, KALA peptide, FITC-labeled]
uptake efficiency among five CPPs (rank) [5]: R11>>KALA≧TAT≧PENE≧K11

^FITC-G-RKKRRQRRR (N-terminal FITC-Gly) [TAT, CPP derived from HIV TAT amino acid 49-57, FITC-labeled]
uptake efficiency among five CPPs (rank) [5]: R11>>KALA≧TAT≧PENE≧K11

^FITC-G-RRRRRRRRRRR-GGG-FQLRQPPLVPSRKGE ({FITC}-GRRRRRRRRRRRGGGFQLRQPPLVPSRKGE) [R11PPL, FITC-R11 conjugated with PPL (DOC-2/DAB2 PR domain) at C-terminus]
interaction between Grb2 and SOS [7]: dose-dependent inhibitory effect
uptake of R11, R11AAL and R11PPL compared [5]: very similar
serum-induced activation of Erk2 ([8]; 5 μM peptide 3 hours before 5% FBS): suppressed
EGF induced activation of Erk2 ([8]; 5 μM peptide 3 hours before EGF 10 ng/ml): could suppress
serum or DHT-induced cell proliferation (C4-2 cells): suppressed
serum or DHT-induced cell proliferation (LNCaP [6]): suppressed

dextran sulfate
competition of R11 uptake by GAGs [1]: effectively compete the uptake of R11

pentosan sulfate
competition of R11 uptake by GAGs [1]: effectively compete the uptake of R11

protamine sulfate
competition of R11 uptake by GAGs [1]: effectively compete the uptake of R11

B1: DOC-2/DAB2: native protein, expression plasmid transfection used as a positive control in pull-down (protein, UniProt P98082 2-770, looked up)
Disabled homolog 2: SNEVETSATNGQPDQQAAPKAPSKKEKKKGPEKTDEYLLARFKGDGVKYKAKLIGIDDVPDARGDKMSQDSMMKLKGMAAAGRSQGQHKQRIWVNISLSGIKIIDEKTGVIEHEHPVNKISFIARDVTDNRAFGYVCGGEGQHQFFAIKTGQQAEPLVVDLKDLFQVIYNVKKKEEEKKKIEEASKAVENGSEALMILDDQTNKLKSGVDQMDLFGDMSTPPDLNSPTESKDILLVDLNSEIDTNQNSLRENPFLTNGITSCSLPRPTPQASFLPENAFSANLNFFPTPNPDPFRDDPFTQPDQSTPSSFDSLKSPDQKKENSSSSSTPLSNGPLNGDVDYFGQQFDQISNRTGKQEAQAGPWPFSSSQTQPAVRTQNGVSEREQNGFSVKSSPNPFVGSPPKGLSIQNGVKQDLESSVQSSPHDSIAIIPPPQSTKPGRGRRTAKSSANDLLASDIFAPPVSEPSGQASPTGQPTALQPNPLDLFKTSAPAPVGPLVGLGGVTVTLPQAGPWNTASLVFNQSPSMAPGAMMGGQPSGFSQPVIFGTSPAVSGWNQPSPFAASTPPPVPVVWGPSASVAPNAWSTTSPLGNPFQSNIFPAPAVSTQPPSMHSSLLVTPPQPPPRAGPPKDISSDAFTALDPLGDKEIKDVKEMFKDFQLRQPPAVPARKGEQTSSGTLSAFASYFNSKVGIPQENADHDDFDANQLLNKINEPPKPAPRQVSLPVTKSTDNAFENPFFKDSFGSSQASVASSQPVSSEMYRDPFGNPFA
interaction between Grb2 and SOS [7]: inhibited
